Reference: patent publication US20230157952A1, “METHOD FOR IMPROVING THE STABILITY OF A PHARMACEUTICAL COMPOSITION COMPRISING A HIGH PENETRATION DRUG, AND THE PHARMACEUTICAL COMPOSITION OBTAINED THEREFROM” (Techfields Inc., priority 2020, published 2023)
Values belong to the compound of their own block, whether it stands above or below them.

Assay: Effect of temperature (and pH) on the stability of the solution (purity)
Type: physicochemical
Conditions: 7% solution in water

- Purity(%) at day 0 (pH 1.0, day 0): 98.2 ± 0.3%
- Purity(%) at day 21 (5° C.) (pH 1.0, day 21, 5° C.): 90.1 ± 0.3%
- Purity(%) at day 21 (25° C.) (pH 1.0, day 21, 25° C.): 59.9 ± 0.3%
- Purity(%) at day 21 (40° C.) (pH 1.0, day 21, 40° C.): 7.9 ± 0.3%
- Purity (%) at day 21 (60° C.) (pH 1.0, day 21, 60° C.): 0%
- Purity(%) at day 0 (pH 2.0, day 0): 98.4 ± 0.3%
- Purity(%) at day 21 (5° C.) (pH 2.0, day 21, 5° C.): 93.0 ± 0.2%
- Purity(%) at day 21 (25° C.) (pH 2.0, day 21, 25° C.): 74.8 ± 0.2%
- Purity(%) at day 21 (40° C.) (pH 2.0, day 21, 40° C.): 17.6 ± 0.2%
- Purity (%) at day 21 (60° C.) (pH 2.0, day 21, 60° C.): 0%
- Purity(%) at day 0 (pH 3.0, day 0): 98.6 ± 0.1%
- Purity(%) at day 21 (5° C.) (pH 3.0, day 21, 5° C.): 96.9 ± 0.2%
- Purity(%) at day 21 (25° C.) (pH 3.0, day 21, 25° C.): 88.9 ± 0.2%
- Purity(%) at day 21 (40° C.) (pH 3.0, day 21, 40° C.): 36.4 ± 0.2%
- Purity (%) at day 21 (60° C.) (pH 3.0, day 21, 60° C.): 0%
- Purity(%) at day 0 (pH 3.7, day 0): 98.7 ± 0.2%
- Purity(%) at day 21 (5° C.) (pH 3.7, day 21, 5° C.): 97.8 ± 0.1%
- Purity(%) at day 21 (25° C.) (pH 3.7, day 21, 25° C.): 94.5 ± 0.2%
- Purity(%) at day 21 (40° C.) (pH 3.7, day 21, 40° C.): 50.6 ± 0.2%
- Purity (%) at day 21 (60° C.) (pH 3.7, day 21, 60° C.): 7.3 ± 0.3%
- Purity(%) at day 0 (pH 4.0, day 0): 98.8 ± 0.1%
- Purity(%) at day 21 (5° C.) (pH 4.0, day 21, 5° C.): 97.9 ± 0.1%
- Purity(%) at day 21 (25° C.) (pH 4.0, day 21, 25° C.): 95.1 ± 0.1%
- Purity(%) at day 21 (40° C.) (pH 4.0, day 21, 40° C.): 53.2 ± 0.2%
- Purity (%) at day 21 (60° C.) (pH 4.0, day 21, 60° C.): 20.2 ± 0.2%
- Purity(%) at day 0 (pH 4.3, day 0): 98.8 ± 0.2%
- Purity(%) at day 21 (5° C.) (pH 4.3, day 21, 5° C.): 97.9 ± 0.2%
- Purity(%) at day 21 (25° C.) (pH 4.3, day 21, 25° C.): 95.2 ± 0.2%
- Purity(%) at day 21 (40° C.) (pH 4.3, day 21, 40° C.): 54.8 ± 0.1%
- Purity (%) at day 21 (60° C.) (pH 4.3, day 21, 60° C.): 21.8 ± 0.3%
- Purity(%) at day 0 (pH 4.6, day 0): 98.7 ± 0.1%
- Purity(%) at day 21 (5° C.) (pH 4.6, day 21, 5° C.): 97.8 ± 0.2%
- Purity(%) at day 21 (25° C.) (pH 4.6, day 21, 25° C.): 95.0 ± 0.1%
- Purity(%) at day 21 (40° C.) (pH 4.6, day 21, 40° C.): 54.7 ± 0.2%
- Purity (%) at day 21 (60° C.) (pH 4.6, day 21, 60° C.): 15.5 ± 0.3%
- Purity(%) at day 0 (pH 5.0, day 0): 98.6 ± 0.3%
- Purity(%) at day 21 (5° C.) (pH 5.0, day 21, 5° C.): 96.3 ± 0.2%
- Purity(%) at day 21 (25° C.) (pH 5.0, day 21, 25° C.): 89.8 ± 0.1%
- Purity(%) at day 21 (40° C.) (pH 5.0, day 21, 40° C.): 30.1 ± 0.2%
- Purity (%) at day 21 (60° C.) (pH 5.0, day 21, 60° C.): 3.2 ± 0.2%
- Purity(%) at day 0 (pH 6.0, day 0): 98.4 ± 0.2%
- Purity(%) at day 21 (5° C.) (pH 6.0, day 21, 5° C.): 93.4 ± 0.2%
- Purity(%) at day 21 (25° C.) (pH 6.0, day 21, 25° C.): 73.9 ± 0.2%
- Purity(%) at day 21 (40° C.) (pH 6.0, day 21, 40° C.): 16.5 ± 0.2%
- Purity (%) at day 21 (60° C.) (pH 6.0, day 21, 60° C.): 0%
- Purity(%) at day 0 (pH 7.0, day 0): 98.2 ± 0.3%
- Purity(%) at day 21 (5° C.) (pH 7.0, day 21, 5° C.): 89.2 ± 0.3%
- Purity(%) at day 21 (25° C.) (pH 7.0, day 21, 25° C.): 59.7 ± 0.2%
- Purity(%) at day 21 (40° C.) (pH 7.0, day 21, 40° C.): 7.1 ± 0.3%
- Purity (%) at day 21 (60° C.) (pH 7.0, day 21, 60° C.): 0%
- Purity(%) at day 0 (pH 8.0, day 0): 98.0 ± 0.3%
- Purity(%) at day 21 (5° C.) (pH 8.0, day 21, 5° C.): 77.1 ± 0.3%
- Purity(%) at day 21 (25° C.) (pH 8.0, day 21, 25° C.): 40.8 ± 0.3%
- Purity(%) at day 21 (40° C.) (pH 8.0, day 21, 40° C.): 0%
- Purity (%) at day 21 (60° C.) (pH 8.0, day 21, 60° C.): 0%
SMILES: CCN(CC)CCOC(=O)CCc1nc(-c2ccccc2)c(-c2ccccc2)o1.Cl

- Purity(%) at day 0 (pH 1.0, day 0): 99.1%
- Purity(%) at day 14 (5° C.) (pH 1.0, day 14, 5° C.): 90.2%
- Purity(%) at day 14 (25° C.) (pH 1.0, day 14, 25° C.): 61.2%
- Purity(%) at day 14 (40° C.) (pH 1.0, day 14, 40° C.): 0%
- Purity (%) at day 14 (60° C.) (pH 1.0, day 14, 60° C.): 0%
- Purity(%) at day 0 (pH 2.0, day 0): 99.1%
- Purity(%) at day 14 (5° C.) (pH 2.0, day 14, 5° C.): 95.8%
- Purity(%) at day 14 (25° C.) (pH 2.0, day 14, 25° C.): 82.7%
- Purity(%) at day 14 (40° C.) (pH 2.0, day 14, 40° C.): 0%
- Purity (%) at day 14 (60° C.) (pH 2.0, day 14, 60° C.): 0%
- Purity(%) at day 0 (pH 3.0, day 0): 99.1%
- Purity(%) at day 14 (5° C.) (pH 3.0, day 14, 5° C.): 97.5%
- Purity(%) at day 14 (25° C.) (pH 3.0, day 14, 25° C.): 87.7%
- Purity(%) at day 14 (40° C.) (pH 3.0, day 14, 40° C.): 2.3%
- Purity (%) at day 14 (60° C.) (pH 3.0, day 14, 60° C.): 0%
- Purity(%) at day 0 (pH 3.7, day 0): 99.1%
- Purity(%) at day 14 (5° C.) (pH 3.7, day 14, 5° C.): 98.2%
- Purity(%) at day 14 (25° C.) (pH 3.7, day 14, 25° C.): 95.5%
- Purity(%) at day 14 (40° C.) (pH 3.7, day 14, 40° C.): 14.1%
- Purity (%) at day 14 (60° C.) (pH 3.7, day 14, 60° C.): 0%
- Purity(%) at day 0 (pH 4.0, day 0): 99.1%
- Purity(%) at day 14 (5° C.) (pH 4.0, day 14, 5° C.): 98.4%
- Purity(%) at day 14 (25° C.) (pH 4.0, day 14, 25° C.): 95.9%
- Purity(%) at day 14 (40° C.) (pH 4.0, day 14, 40° C.): 14.3%
- Purity (%) at day 14 (60° C.) (pH 4.0, day 14, 60° C.): 0%
- Purity(%) at day 0 (pH 4.3, day 0): 99.1%
- Purity(%) at day 14 (5° C.) (pH 4.3, day 14, 5° C.): 98.4%
- Purity(%) at day 14 (25° C.) (pH 4.3, day 14, 25° C.): 95.8%
- Purity(%) at day 14 (40° C.) (pH 4.3, day 14, 40° C.): 12.8%
- Purity (%) at day 14 (60° C.) (pH 4.3, day 14, 60° C.): 0%
- Purity(%) at day 0 (pH 4.6, day 0): 99.1%
- Purity(%) at day 14 (5° C.) (pH 4.6, day 14, 5° C.): 98.3%
- Purity(%) at day 14 (25° C.) (pH 4.6, day 14, 25° C.): 95.6%
- Purity(%) at day 14 (40° C.) (pH 4.6, day 14, 40° C.): 3.4%
- Purity (%) at day 14 (60° C.) (pH 4.6, day 14, 60° C.): 0%
- Purity(%) at day 0 (pH 5.0, day 0): 99.1%
- Purity(%) at day 14 (5° C.) (pH 5.0, day 14, 5° C.): 97.0%
- Purity(%) at day 14 (25° C.) (pH 5.0, day 14, 25° C.): 91.0%
- Purity(%) at day 14 (40° C.) (pH 5.0, day 14, 40° C.): 0.9%
- Purity (%) at day 14 (60° C.) (pH 5.0, day 14, 60° C.): 0%
- Purity(%) at day 0 (pH 6.0, day 0): 99.1%
- Purity(%) at day 14 (5° C.) (pH 6.0, day 14, 5° C.): 91.6%
- Purity(%) at day 14 (25° C.) (pH 6.0, day 14, 25° C.): 84.1%
- Purity(%) at day 14 (40° C.) (pH 6.0, day 14, 40° C.): 0%
- Purity (%) at day 14 (60° C.) (pH 6.0, day 14, 60° C.): 0%
- Purity(%) at day 0 (pH 7.0, day 0): 99.1%
- Purity(%) at day 14 (5° C.) (pH 7.0, day 14, 5° C.): 87.3%
- Purity(%) at day 14 (25° C.) (pH 7.0, day 14, 25° C.): 60.3%
- Purity(%) at day 14 (40° C.) (pH 7.0, day 14, 40° C.): 0%
- Purity (%) at day 14 (60° C.) (pH 7.0, day 14, 60° C.): 0%
- Purity(%) at day 0 (pH 8.0, day 0): 99.1%
- Purity(%) at day 14 (5° C.) (pH 8.0, day 14, 5° C.): 57.3%
- Purity(%) at day 14 (25° C.) (pH 8.0, day 14, 25° C.): 21.2%
- Purity(%) at day 14 (40° C.) (pH 8.0, day 14, 40° C.): 0%
- Purity (%) at day 14 (60° C.) (pH 8.0, day 14, 60° C.): 0%
SMILES: CCN(CC)CCOC(=O)c1cc(-c2ccc(F)cc2F)ccc1OC(C)=O.Cl
